Measurements as given in EP4790066A1, “GLP-1R/GIPR/GCGR TRIPLE AGONIST ANALOGUE AND USE THEREOF” (Shenzhen Bay Laboratory, priority 2023, dated 2025).

Columns and labels:
Assay type in all cases: cell-based
GLP-1R [1] = target: T1, GLP-1R (Homo sapiens, UniProt P43220); assay: cAMP method (HTRF cAMP detection kit), HEK293/pGM-CREB-L-Luc/GLP-1 pool; conditions: read-out: EC50 (pM) for each receptor GLP-1R
T1 construct: expressed in transfected cells
Experimental: (§1) 2. Insulinotropic analogues can bind to target receptors on the cell membrane, activate the receptors, and induce release. The activity of the test substance can be determined using the HTRF method with a cAMP detection kit. Therefore, the cAMP method can be used to detect the target peptide derivatives (or polypeptide derivatives, i.e., TG1-TG86) prepared in Example 1 and Example 2. […] The test cell line was selected, treated with cAMP-specific trypsin for digestion. 3 mL of serum-free DMEM culture medium was added, and the cells were pipetted, resuspended, and counted. 5 µL of IBMX (prepared with serum-free DMEM medium, 0.5 mM) and test cells (5 µL/7500 cells/well) were added in a 384-well plate sequentially. The plate was incubated at 37°C under 5% CO2 for 30 min, followed by the addition of cAMP-d2 (5 µL, 1x) and Anti-cAMP-Cryptate (5 µL, 1x). The mixture was kept at room temperature for 1 h, after which the HTRF value was measured using a chemiluminescent microplate reader, and the determination result was recorded. […] Table 4: EC50 values for target peptide derivatives

GIPR [2] = target: T2, GIPR (Homo sapiens, UniProt P48546); assay: cAMP method (HTRF cAMP detection kit), HEK293/pGM-CREB-L-Luc/GIP pool; conditions: read-out: EC50 (pM) for each receptor GIPR
T2 construct: expressed in transfected cells
T2 sequence (P48546 22-466): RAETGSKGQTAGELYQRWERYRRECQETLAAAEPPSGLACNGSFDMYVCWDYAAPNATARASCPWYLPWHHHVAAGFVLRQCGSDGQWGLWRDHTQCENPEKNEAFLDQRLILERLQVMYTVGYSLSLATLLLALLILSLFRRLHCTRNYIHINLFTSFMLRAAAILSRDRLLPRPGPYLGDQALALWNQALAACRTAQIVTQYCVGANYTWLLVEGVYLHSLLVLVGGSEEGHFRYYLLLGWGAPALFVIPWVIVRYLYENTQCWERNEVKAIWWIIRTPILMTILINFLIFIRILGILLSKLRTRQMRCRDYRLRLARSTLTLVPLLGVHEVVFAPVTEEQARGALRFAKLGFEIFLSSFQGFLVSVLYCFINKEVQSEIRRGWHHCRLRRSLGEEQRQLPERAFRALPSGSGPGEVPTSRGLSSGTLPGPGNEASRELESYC
Experimental: as §1

GLP-1R [3] = target: T1, GLP-1R; assay: CreLuc method (CRE-luciferase reporter), HEK293/pGM-CREB-L-Luc/GLP-1R pool; conditions: 6 h incubation, read-out: EC50 (pM) for each receptor GLP-1R
Method in brief: (§2)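 Stable HEK293 pools co-expressing each receptor with a CRE-luciferase reporter were plated at 20,000 cells/well in freestyle medium and treated with compound dilution series for 6 h at 37 °C. Luminescence was read with ONE-GLO to derive EC50.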

GCGR [4] = target: T3, GCGR (Homo sapiens, UniProt P47871); assay: cAMP method (HTRF cAMP detection kit), HEK293/pGM-CREB-L-Luc/GCG pool; conditions: read-out: EC50 (pM) for each receptor GCGR
T3 construct: expressed in transfected cells
T3 sequence (P47871 26-477, species assumed): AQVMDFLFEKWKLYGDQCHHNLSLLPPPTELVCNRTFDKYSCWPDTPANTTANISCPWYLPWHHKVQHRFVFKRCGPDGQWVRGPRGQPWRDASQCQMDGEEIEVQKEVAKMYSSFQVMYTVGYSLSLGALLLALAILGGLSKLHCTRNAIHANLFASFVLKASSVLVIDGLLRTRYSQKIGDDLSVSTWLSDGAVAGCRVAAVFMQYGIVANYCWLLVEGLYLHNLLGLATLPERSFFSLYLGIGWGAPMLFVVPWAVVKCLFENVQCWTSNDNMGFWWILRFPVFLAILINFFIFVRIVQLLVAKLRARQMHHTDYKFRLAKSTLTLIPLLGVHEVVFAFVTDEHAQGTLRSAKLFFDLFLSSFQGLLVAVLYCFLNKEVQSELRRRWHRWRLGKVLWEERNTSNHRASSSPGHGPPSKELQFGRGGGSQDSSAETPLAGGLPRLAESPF
Experimental: as §1

GCGR [5] = target: T3, GCGR; assay: CreLuc method (CRE-luciferase reporter), 293HEK/pGM-CREB-L-Luc/GCGR pool; conditions: 6 h incubation, read-out: EC50 (pM) for each receptor GCGR
Method in brief: as §2

GIPR [6] = target: T2, GIPR; assay: CreLuc method (CRE-luciferase reporter), HEK293/pGM-CREB-L-Luc/GIPR pool; conditions: 6 h incubation, read-out: EC50 (pM) for each receptor GIPR
Method in brief: as §2

T1 sequence (P43220 24-463, species assumed): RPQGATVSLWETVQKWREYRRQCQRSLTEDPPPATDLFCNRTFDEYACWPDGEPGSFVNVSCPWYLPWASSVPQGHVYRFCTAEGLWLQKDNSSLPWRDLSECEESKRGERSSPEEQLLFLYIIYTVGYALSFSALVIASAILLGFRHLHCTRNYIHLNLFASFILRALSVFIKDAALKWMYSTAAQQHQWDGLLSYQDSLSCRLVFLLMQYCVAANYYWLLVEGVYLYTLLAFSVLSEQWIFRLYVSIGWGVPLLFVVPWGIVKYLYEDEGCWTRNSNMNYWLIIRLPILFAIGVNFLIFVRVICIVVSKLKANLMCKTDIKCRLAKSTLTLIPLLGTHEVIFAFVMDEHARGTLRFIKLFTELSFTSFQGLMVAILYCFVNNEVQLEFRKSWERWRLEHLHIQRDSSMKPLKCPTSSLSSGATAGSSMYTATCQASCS

| SMILES | EC50 (GLP-1R [1]) [pM] | EC50 (GIPR [2]) [pM] | EC50 (GLP-1R [3]) [pM] | EC50 (GCGR [4]) [pM] | EC50 (GCGR [5]) [pM] | EC50 (GIPR [6]) [pM] |
| --- | --- | --- | --- | --- | --- | --- |
| CC[C@H](C)[C@@H]1NC(=O)[C@H](Cc2ccccc2)NC(=O)[C@@H](NC(=O)C(C)(C)NC(=O)[C@H](CCC(N)=O)NC(=O)[C@H](C)NC(=O)[C@H](CCCCNC(C)=O)NC(=O)[C@H](CCCCN)NC(=O)[C@H](CC(=O)O)NC(=O)[C@H](CC(C)C)NC(=O)[C@](C)(CC(C)C)NC(=O)[C@@H](NC(=O)[C@H](CO)NC(=O)[C@H](Cc2ccc(O)cc2)NC(=O)[C@H](CC(=O)O)NC(=O)[C@H](CO)NC(=O)[C@@H](NC(=O)[C@H](Cc2ccccc2)NC(=O)[C@@H](NC(=O)CNC(=O)[C@H](CCC(N)=O)NC(=O)C(C)(C)NC(=O)[C@@H](N)Cc2ccc(O)cc2)[C@@H](C)O)[C@@H](C)O)[C@@H](C)CC)CSCC(=O)NCCN(C(=O)CCC(=O)NCCOCCOCC(=O)NCCOCCOCC(=O)NCCCC[C@H](NC(=O)CCCCCCCCCCCCCCCCCCC(=O)O)C(=O)O)CCNC(=O)CSC[C@@H](C(=O)NCC(=O)NCC(=O)N2CCC[C@H]2C(=O)N[C@@H](CO)C(=O)N[C@@H](CO)C(=O)NCC(=O)N[C@@H](C)C(=O)N2CCC[C@H]2C(=O)N2CCC[C@H]2C(=O)N2CCC[C@H]2C(=O)N[C@@H](CO)C(N)=O)NC(=O)[C@H](CC(C)C)NC(=O)[C@H](CC(C)C)NC(=O)[C@H](Cc2ccc(O)cc2)NC(=O)[C@H](CCC(=O)O)NC1=O [TG15] | 1.9 | 3.3 | 116 | 40.3 | 329 | 85.6 |
| CC[C@H](C)[C@@H]1NC(=O)[C@H](Cc2ccccc2)NC(=O)[C@@H](NC(=O)C(C)(C)NC(=O)[C@H](CCC(N)=O)NC(=O)[C@H](C)NC(=O)[C@H](CCC(N)=O)NC(=O)[C@H](CCCCN)NC(=O)[C@H](CC(=O)O)NC(=O)[C@H](CC(C)C)NC(=O)[C@](C)(CC(C)C)NC(=O)[C@@H](NC(=O)[C@H](CO)NC(=O)[C@H](Cc2ccc(O)cc2)NC(=O)[C@H](CC(=O)O)NC(=O)[C@H](CO)NC(=O)[C@@H](NC(=O)[C@H](Cc2ccccc2)NC(=O)[C@@H](NC(=O)CNC(=O)[C@H](CCC(N)=O)NC(=O)C(C)(C)NC(=O)[C@@H](N)Cc2ccc(O)cc2)[C@@H](C)O)[C@@H](C)O)[C@@H](C)CC)CSCC(=O)NCCN(C(=O)CCC(=O)NCCOCCOCC(=O)NCCOCCOCC(=O)NCCCC[C@H](NC(=O)CCCCCCCCCCCCCCCCCCC(=O)O)C(=O)O)CCNC(=O)CSC[C@@H](C(=O)NCC(=O)NCC(=O)N2CCC[C@H]2C(=O)N[C@@H](CO)C(=O)N[C@@H](CO)C(=O)NCC(=O)N[C@@H](C)C(=O)N2CCC[C@H]2C(=O)N2CCC[C@H]2C(=O)N2CCC[C@H]2C(=O)N[C@@H](CO)C(N)=O)NC(=O)[C@H](CC(C)C)NC(=O)[C@H](CC(C)C)NC(=O)[C@H](Cc2ccc(O)cc2)NC(=O)[C@H](CCC(=O)O)NC1=O [TG30] | 2.5 | 3.2 | 47.8 | 28.7 | 347 | 45.3 |
| CC[C@H](C)[C@@H]1NC(=O)[C@H](Cc2ccccc2)NC(=O)[C@@H](NC(=O)C(C)(C)NC(=O)[C@H](CCC(N)=O)NC(=O)[C@H](C)NC(=O)[C@H](CCCCNC(C)=O)NC(=O)[C@H](CCCCN)NC(=O)[C@H](CC(=O)O)NC(=O)[C@H](CC(C)C)NC(=O)[C@](C)(CC(C)C)NC(=O)[C@@H](NC(=O)[C@H](CO)NC(=O)[C@H](Cc2ccc(O)cc2)NC(=O)[C@H](CC(=O)O)NC(=O)[C@H](CO)NC(=O)[C@@H](NC(=O)[C@H](Cc2ccccc2)NC(=O)[C@@H](NC(=O)CNC(=O)[C@H](CCC(N)=O)NC(=O)C(C)(C)NC(=O)[C@@H](N)Cc2c[nH]cn2)[C@@H](C)O)[C@@H](C)O)[C@@H](C)CC)CSCC(=O)NCCN(C(=O)CCC(=O)NCCOCCOCC(=O)NCCOCCOCC(=O)NCCCC[C@H](NC(=O)CCCCCCCCCCCCCCCCCCC(=O)O)C(=O)O)CCNC(=O)CSC[C@@H](C(=O)NCC(=O)NCC(=O)N2CCC[C@H]2C(=O)N[C@@H](CO)C(=O)N[C@@H](CO)C(=O)NCC(=O)N[C@@H](C)C(=O)N2CCC[C@H]2C(=O)N2CCC[C@H]2C(=O)N2CCC[C@H]2C(=O)N[C@@H](CO)C(N)=O)NC(=O)[C@H](CC(C)C)NC(=O)[C@H](CC(C)C)NC(=O)[C@H](Cc2ccc(O)cc2)NC(=O)[C@H](CCC(=O)O)NC1=O [TG18] | 1.4 | 1.7 | 66.9 | 94.4 | 802 | 25.9 |
| CC(C)C[C@H](NC(=O)[C@H](CC(C)C)NC(=O)[C@H](Cc1c[nH]c2ccccc12)NC(=O)[C@@H]1CSCC(=O)NCCN(C(=O)CCC(=O)NCCOCCOCC(=O)NCCOCCOCC(=O)NCCCC[C@H](NC(=O)CCCCCCCCCCCCCCCCCCC(=O)O)C(=O)O)CCNC(=O)CSC[C@H](NC(=O)[C@H](CCCCN)NC(=O)[C@H](CC(=O)O)NC(=O)[C@H](CC(C)C)NC(=O)[C@H](Cc2ccc(O)cc2)NC(=O)[C@H](CCCCN)NC(=O)[C@H](CO)NC(=O)[C@H](Cc2ccc(O)cc2)NC(=O)[C@H](CC(=O)O)NC(=O)[C@H](CO)NC(=O)[C@@H](NC(=O)[C@H](Cc2ccccc2)NC(=O)[C@@H](NC(=O)CNC(=O)[C@H](Cc2c[nH]cn2)NC(=O)C(C)(C)NC(=O)[C@@H](N)Cc2c[nH]cn2)[C@@H](C)O)[C@@H](C)O)C(=O)N[C@@H](Cc2ccc(O)cc2)C(=O)N[C@@H](C)C(=O)N[C@@H](CCC(N)=O)C(=O)N[C@@H](CC(=O)O)C(=O)N[C@@H](Cc2ccccc2)C(=O)N[C@@H](C(C)C)C(=O)N1)C(=O)N[C@@H](CCC(=O)O)C(=O)NCC(=O)NCC(=O)N1CCC[C@H]1C(=O)N[C@@H](CO)C(=O)N[C@@H](CO)C(=O)NCC(=O)N[C@@H](C)C(=O)N1CCC[C@H]1C(=O)N1CCC[C@H]1C(=O)N1CCC[C@H]1C(=O)N[C@@H](CO)C(N)=O [TG10] | 2.5 | 9.7 | 359 | 8.5 | 149 | 368 |
| CC[C@H](C)[C@@H]1NC(=O)[C@H](Cc2ccccc2)NC(=O)[C@@H](NC(=O)C(C)(C)NC(=O)[C@H](CCC(N)=O)NC(=O)[C@H](C)NC(=O)[C@H](CCCCNC(C)=O)NC(=O)[C@H](CCCCN)NC(=O)[C@H](CC(=O)O)NC(=O)[C@H](CC(C)C)NC(=O)[C@](C)(CC(C)C)NC(=O)[C@@H](NC(=O)[C@H](CO)NC(=O)[C@H](Cc2ccc(O)cc2)NC(=O)[C@H](CC(=O)O)NC(=O)[C@H](CO)NC(=O)[C@@H](NC(=O)[C@H](Cc2ccccc2)NC(=O)[C@@H](NC(=O)CNC(=O)[C@H](CCC(N)=O)NC(=O)C2(NC(=O)[C@@H](N)Cc3ccc(O)cc3)CCC2)[C@@H](C)O)[C@@H](C)O)[C@@H](C)CC)CSCC(=O)NCCN(C(=O)CCC(=O)NCCOCCOCC(=O)NCCOCCOCC(=O)NCCCC[C@H](NC(=O)CCCCCCCCCCCCCCCCCCC(=O)O)C(=O)O)CCNC(=O)CSC[C@@H](C(=O)NCC(=O)NCC(=O)N2CCC[C@H]2C(=O)N[C@@H](CO)C(=O)N[C@@H](CO)C(=O)NCC(=O)N[C@@H](C)C(=O)N2CCC[C@H]2C(=O)N2CCC[C@H]2C(=O)N2CCC[C@H]2C(=O)N[C@@H](CO)C(N)=O)NC(=O)[C@H](CC(C)C)NC(=O)[C@H](CC(C)C)NC(=O)[C@H](Cc2ccc(O)cc2)NC(=O)[C@H](CCC(=O)O)NC1=O [TG43] | 1.3 | 6.4 | 57.1 | 3.8 | 78.7 | 13.6 |
